Values quoted from earlier work, collected in patent US8778397B2, “Stabilized tolterodine tartrate formulations” (Mylan Inc., priority 2007, dated 2014).

## Cc1ccc(O)c([C@H](CCN(C(C)C)C(C)C)c2ccccc2)c1 [Tolterodine]
  solubility in water: 12 g/1000 mL
